# Test results published in PMC13607727 (International Journal of Molecular Sciences, 2026).
# Several values for one entry are separate records, joined by “and”; a condition that tells them apart may be missing. Equal entries are not always repeated. Structures can show the parent of a compound that is named as a salt. Where two headings read alike, the source gives them in different places.
# Assays:
# [1] = molecular target: 2019-nCoV S-RBD (Severe acute respiratory syndrome coronavirus 2, UniProt P0DTC2); format: binding, SARS-CoV-2
# [2] = system: 2019-nCoV pseudovirus; format: cell-based, SARS-CoV-2
# [3] = system: Delta (B.1.617.2) pseudovirus; format: cell-based, SARS-CoV-2
# [4] = molecular target: 2019-nCoV S protein (Severe acute respiratory syndrome coronavirus 2, UniProt P0DTC2); format: binding, SARS-CoV-2; conditions: for ΔTm: 100 µM
# [5] = system: HEK293T cells; format: cell-based
# [6] = molecular target: 2019-nCoV S protein–hACE2 complex (Severe acute respiratory syndrome coronavirus 2, UniProt P0DTC2); format: cell-based, SARS-CoV-2; human
# [7] = system: Omicron BA.5 pseudovirus; format: cell-based, SARS-CoV-2
# [8] = read-out: KD (equilibrium dissociation constant)
# [9] = read-out: IC50 (concentration inducing 50% cell death)
"Kd [1, 8] [µM]",ΔTm [4],Tm [4] [°C],Compound,Kd ([1]; read-out: KD),Kd ([1]; read-out: Mean KD ± SD) [µM],Effect on pseudovirus entry [2],IC50 [2] [µM],Effect on pseudovirus entry [3],IC50 [3] [µM],CETSA classification [4],Fold-change ratio of soluble S-protein band intensity relative to controls [4],Cell viability [5],CC50 ([5]; read-out: Cytotoxicity CC50) [µM],Reduction in S-protein pull-downs [6] [%],Reduction in hACE2 pull-downs [6] [%],Effect on pseudovirus entry [7],IC50 [7] [µM],other results
11.4,−6.1 °C,43.4,Bacitracin zinc [BZ],–,–,–,–,–,–,–,–,–,–,61.8,95.7,–,–,"CC50 [5, 9]: 79.9 µM"
–,−0.7 °C,48.9,DDAVP,–,–,–,–,–,–,–,–,–,–,–,–,–,–,–
30.7,+5.8 °C,55.4,angiotensin II [Ang II],–,–,–,–,–,–,–,–,above 90%,–,–,–,–,–,Effect on S-RBD/hACE2 co-immunoprecipitation [6]: did not appreciably reduce
35,+0.7 °C,–,melittin,57 µM and 34.1 µM and 56.8 µM,49.6 ± 12.2,reduced entry of all three pseudoviruses at 1.25 μM,1.83,reduced entry of all three pseudoviruses at 1.25 μM,1.99,did not meet the positive threshold,2.70 ± 0.52,–,2.3,85.1,65.8,reduced entry of all three pseudoviruses at 1.25 μM,> 1.25,"Selectivity Index (SI) [2]: 1.26; Therapeutic index (SI) [2]: ~ 1.2; Selectivity Index (SI) [3]: 1.16; CC50 [5, 9]: 2.3 µM; Selectivity Index (SI) [7]: < 1.84"

Compound,"Kd [1, 8] [µM]",ΔTm [4],Tm [4] [°C],Kd ([1]; read-out: KD),Kd ([1]; read-out: Mean KD ± SD) [µM],Effect on pseudovirus entry [2],IC50 [2] [µM],Effect on pseudovirus entry [3],IC50 [3] [µM],CETSA classification [4],Fold-change ratio of soluble S-protein band intensity relative to controls [4],Cell viability [5],CC50 ([5]; read-out: Cytotoxicity CC50) [µM],Reduction in S-protein pull-downs [6] [%],Reduction in hACE2 pull-downs [6] [%],Effect on pseudovirus entry [7],IC50 [7] [µM],other results
"CC(OC(=O)OC1CCCCC1)OC(=O)C1=C(CSc2nnnn2CC[NH+](C)C)CSC2C(NC(=O)Cc3csc(N)n3)C(=O)N12 (centres unmarked) [CTM-HCl, cefotiam hexetil hydrochloride]",142,+2.2 °C,–,142 µM,142,reduced entry of the ancestral and Omicron strains in a concentration-dependent manner,94.6,marginal and detectable only at 50 μM,> 100,CETSA-positive,1.64 ± 0.21,above 90%,> 100,32.5,7.9,reduced entry of the ancestral and Omicron strains in a concentration-dependent manner,> 100,Selectivity Index (SI) [2]: > 1.06
"CCCCCCCCC=CCCCCCCCC(=O)OCC(C[N+](C)(C)C)OC(=O)CCCCCCCC=CCCCCCCCC (centres unmarked) [DOTAP, DOTAP chloride]",49.9,+9.1 °C,–,79 µM,64.5 ± 20.6,at 25 μM reduced the entry of 2019-nCoV and Omicron pseudoviruses,> 100,limited efficacy against the Delta variant,> 100,CETSA-positive,3.49 ± 0.50,above 90%,–,51.4,46.8,at 25 μM reduced the entry of 2019-nCoV and Omicron pseudoviruses,> 100,–
CC(=O)NC1C(OC2c3ccc(c(Cl)c3)Oc3cc4cc(c3OC3OC(CO)C(O)C(O)C3NC(=O)CCCCCCC(C)C)Oc3ccc(cc3Cl)CC3NC(=O)C(N)c5ccc(O)c(c5)Oc5cc(O)cc(c5)C(NC3=O)C(=O)NC4C(=O)NC3C(=O)NC2C(=O)NC(C(=O)O)c2cc(O)cc(OC4OC(CO)C(O)C(O)C4O)c2-c2cc3ccc2O)OC(CO)C(O)C1O (centres unmarked) [teicoplanin],–,−4.0 °C,–,–,–,effective against the ancestral strain at 25–50 μM,> 100,observed only at 100 μM,> 100,did not meet the positive threshold,–,above 90%,> 100,52.2,54.4,reduced Omicron pseudovirus entry in a concentration-dependent manner,> 100,–
